{"source": "patent US20260265300A1", "about": "“TARGETING PRAC1 IN STEROID HORMONE DRIVEN CANCER” (Fred Hutchinson Cancer Center, priority 2023, published 2026)", "key": {"[1]": {"test_system": "LNCaP-abl cells", "assay": "Proliferation of LNCaP-abl cells with enzalutamide by live cell imaging", "type": "cell-based", "settings": "10 μM enzalutamide", "protocol": "Resistance to ARSI therapy is a major driver of PC related mortality. In this example, PRAC1-negative LNCaP-abl cells were grown in fully supplemented growth media (RPMI plus 10% FBS) in the absence or presence of 10 μM enzalutamide. Cell proliferation was determined longitudinally by live cell imaging using a Cytation™ 5 imaging instrument. […] Restoring PRAC1 function can result in re-sensitization of ARSI therapy (FIG. 4)."}, "[2]": {"test_system": "LNCaP-abl cells", "assay": "Cell viability of LNCaP-abl cells exposed to PRAC1 peptides (CellTiter-Blue, 72 hours)", "type": "cell-based", "settings": "increasing concentrations of peptide", "protocol": "(§1) PRAC1-negative LNCaP-abl cells were grown and exposed to increasing concentrations of the cell-permeable peptides, and cell viability was measured after 72 hours using CellTiter-Blue® (Patel et al., Cancer Res. Commun. 2(5):277-285 2022. doi: 10.1158/2767-9764.crc-21-0156. Epub 2022 May 2). […] The PRAC-F6 peptide was further tested for cell permeability.\n(§2) Cell viability of androgen receptor negative and androgen receptor positive cells was tested in vitro. The androgen positive cell lines LNCaP and LNCaP-abl and the androgen receptor negative cell lines PC3 and DU145 were incubated with the PRAC-F6, carboxy terminal peptide including the TAT cell penetration peptide. Cell viability was measured after 72 hours using CellTiter-Blue®.\nLNCaP-abl cells were incubated with increasing concentrations of PRAC1 peptides, and cell viability was determined after 72 hours using CellTiter-Blue®. […]"}, "[3]": {"test_system": "LNCaP-abl cells", "settings": "N-terminally FITC-labeled peptide, flow cytometry", "protocol": "as §1"}, "[4]": {"test_system": "human prostate cancer LAPC4-CR cells", "assay": "In vivo prostate cancer xenograft model (LAPC4-CR in castrated NSG mice)", "settings": "castrated male NSG mice, intraperitoneally daily, versus scrambled control peptide", "protocol": "The peptide was also tested in an in vivo in prostate cancer xenograft model. Male NOD SCID gamma (NSG) mice were chemically castrated by subcutaneous injection of degarelix. Mice were then engrafted with PRAC1-negative human prostate cancer LAPC4-CR cells. When tumors reached palpable size, PRAC1 peptide PRAC-F6 or a scrambled control peptide (sc) were delivered intraperitoneally daily. Tumor size was measured by caliper."}, "[5]": {"test_system": "LNCaP", "assay": "Cell viability of androgen receptor positive LNCaP cells (CellTiter-Blue, 72 hours)", "type": "cell-based", "settings": "LNCaP (AR positive)", "protocol": "as §2, with “peptide.” for “peptide. Cell viability was measured after 72 hours using CellTiter-Blue®.”"}, "[6]": {"test_system": "DU145", "assay": "Cell viability of androgen receptor negative DU145 cells (CellTiter-Blue, 72 hours)", "type": "cell-based", "settings": "DU145 (AR negative)", "protocol": "as §2, with “peptide.” for “peptide. Cell viability was measured after 72 hours using CellTiter-Blue®.”"}, "[7]": {"test_system": "PC3", "assay": "Cell viability of androgen receptor negative PC3 cells (CellTiter-Blue, 72 hours)", "type": "cell-based", "settings": "PC3 (AR negative)", "protocol": "as §2, with “peptide.” for “peptide. Cell viability was measured after 72 hours using CellTiter-Blue®.”"}, "[8]": {"molecular_target": "T1, AR LBD (Homo sapiens, UniProt P10275)", "T1 sequence (P10275 669-900 limits assumed)": "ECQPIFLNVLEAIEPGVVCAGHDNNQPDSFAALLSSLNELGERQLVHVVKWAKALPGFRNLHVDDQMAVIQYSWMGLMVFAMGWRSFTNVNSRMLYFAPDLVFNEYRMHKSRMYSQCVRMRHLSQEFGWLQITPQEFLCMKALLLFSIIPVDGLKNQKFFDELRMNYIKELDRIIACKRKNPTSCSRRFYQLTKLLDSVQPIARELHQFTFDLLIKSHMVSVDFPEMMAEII", "assay": "Recombinant protein-based binding assay by surface plasmon resonance", "settings": "highly stringent conditions (0.5M NaCl)"}, "[9]": {"molecular_target": "T2, full-length AR (Homo sapiens, UniProt P10275)", "T2 construct": "made in house", "T2 sequence (P10275 1-920)": "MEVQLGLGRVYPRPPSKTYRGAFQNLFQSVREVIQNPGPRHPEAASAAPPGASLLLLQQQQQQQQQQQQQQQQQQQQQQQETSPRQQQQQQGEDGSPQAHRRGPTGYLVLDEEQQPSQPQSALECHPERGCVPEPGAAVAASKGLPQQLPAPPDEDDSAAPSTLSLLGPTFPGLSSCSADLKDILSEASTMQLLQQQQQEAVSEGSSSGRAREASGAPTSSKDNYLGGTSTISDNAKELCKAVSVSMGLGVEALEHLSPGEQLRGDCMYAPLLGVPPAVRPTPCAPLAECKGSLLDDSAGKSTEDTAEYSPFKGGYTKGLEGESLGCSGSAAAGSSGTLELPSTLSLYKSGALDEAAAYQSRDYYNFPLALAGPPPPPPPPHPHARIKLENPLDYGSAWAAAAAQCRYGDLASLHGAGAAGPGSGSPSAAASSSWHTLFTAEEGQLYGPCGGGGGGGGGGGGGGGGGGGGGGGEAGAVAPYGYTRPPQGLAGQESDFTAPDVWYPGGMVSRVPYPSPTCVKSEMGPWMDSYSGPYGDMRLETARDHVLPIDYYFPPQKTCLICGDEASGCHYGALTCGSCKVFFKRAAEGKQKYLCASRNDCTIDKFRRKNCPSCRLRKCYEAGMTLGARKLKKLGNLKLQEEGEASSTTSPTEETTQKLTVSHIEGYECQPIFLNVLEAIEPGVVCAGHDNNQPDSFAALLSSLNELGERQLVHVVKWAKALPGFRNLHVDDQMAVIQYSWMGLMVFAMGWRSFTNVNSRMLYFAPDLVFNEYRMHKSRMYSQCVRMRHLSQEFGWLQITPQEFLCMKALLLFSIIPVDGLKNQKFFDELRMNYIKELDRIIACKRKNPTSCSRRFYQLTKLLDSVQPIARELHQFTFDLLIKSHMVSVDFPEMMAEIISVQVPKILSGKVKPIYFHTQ", "assay": "Binding to purified full-length AR and effect on its DNA binding activity", "type": "biochemical"}, "[10]": {"test_system": "MCF7", "assay": "Cell viability of MCF7 breast cancer cells (CellTiter-Blue)", "type": "cell-based", "settings": "MCF7 (estrogen and progesterone receptor positive), relative to scrambled control peptide", "excerpt": "Estrogen and progesterone receptor positive breast cancer cell line MCF7 with PRAC1 peptide […] FIG. 8A."}}, "note": "Entries after “also recorded” stand apart in the source; their conditions may differ. Like-named read-outs stand apart in the source and are kept apart here.", "data": [{"compound": "CNC(=O)c1ccc(N2C(=S)N(c3ccc(C#N)c(C(F)(F)F)c3)C(=O)C2(C)C)cc1F", "note": "[enzalutamide]", "values": [{"measurement": "cell proliferation / sensitivity to enzalutamide", "setting": "[1]; LNCaP-abl cells transduced with control vector (RFP), RPMI plus 10% FBS", "value": "resistant to enzalutamide across a broad concentration range"}, {"measurement": "cell proliferation / sensitivity to enzalutamide", "setting": "[1]; LNCaP-abl cells with re-expression of PRAC1 (lentiviral ORF1)", "value": "sensitization to enzalutamide and significant growth suppression; also recorded: restoration of sensitivity to this drug"}]}, {"compound": "LFSLIRKHLLRKKRRQRRRG [PRAC1-F6, C-terminus of PRAC1 linked to the cell permeable TAT peptide]", "values": [{"measurement": "cell viability", "setting": "[2]", "value": "biologically active in reducing cell viability; also recorded: profound dose-dependent decrease in cell viability"}, {"measurement": "cell viability", "setting": "[2]; listed as PRAC-F6", "value": "profound loss of viability"}, {"measurement": "peptide uptake (cellular internalization)", "setting": "[3]; listed as PRAC-F6", "value": "rapid cellular internalization"}, {"measurement": "peptide uptake (cellular internalization)", "setting": "[3]; listed as SEQ ID NO:17", "value": "uptake"}, {"measurement": "tumor growth (tumor size by caliper)", "setting": "[4]", "value": "suppression of LAPC4-CR tumor growth"}, {"measurement": "tumor growth (tumor size by caliper)", "setting": "[4]; listed as PRAC-F6", "value": "suppression of tumor growth"}, {"measurement": "cell viability", "setting": "[5]", "value": "profound dose-dependent decrease in cell viability"}, {"measurement": "cell viability", "setting": "[5]; listed as PRAC-F6", "value": "profound loss of viability"}, {"measurement": "cell viability", "setting": "[6]", "value": "Only AR-expressing cell lines show profound dose-dependent decrease in cell viability"}, {"measurement": "cell viability", "setting": "[6]; listed as PRAC-F6", "value": "only AR-expressing cell lines show a profound loss of viability"}, {"measurement": "cell viability", "setting": "[7]", "value": "Only AR-expressing cell lines show profound dose-dependent decrease in cell viability"}, {"measurement": "cell viability", "setting": "[7]; listed as PRAC-F6", "value": "only AR-expressing cell lines show a profound loss of viability"}]}, {"compound": "MLACKVRQAGFWSPPLQREQRCCAPISQIKDRPILLPPRVLFSLIRKHLL (listed as Homo sapiens) [PRAC1, PRAC1 protein encoded by ORF1 of PRAC1 gene]", "values": [{"measurement": "binding to AR LBD", "setting": "[8]", "value": "specifically binds the AR LBD"}, {"measurement": "binding to full-length AR and change of its DNA binding activity", "setting": "[9]", "value": "specifically binds and alters full-length AR's DNA binding activity"}]}, {"compound": "PPRVLFSLARKHLLRKKRRQRRRG [SEQ ID NO:27, isoleucine-to-alanine substitution mutant]", "values": [{"measurement": "cell viability", "setting": "[2]", "value": "no effect on cell viability"}]}, {"compound": "PPRVLFSLIAKHLLRKKRRQRRRG [SEQ ID NO:28, arginine-to-alanine mutant]", "values": [{"measurement": "cell viability", "setting": "[2]", "value": "attenuated activity on cell viability"}]}, {"compound": "PPRVLFSLIRKHLLRKKRRQRRRG [SEQ ID NO:18]", "values": [{"measurement": "cell viability", "setting": "[2]", "value": "profound anti-tumor cell activity"}, {"measurement": "cell viability", "setting": "[10]", "value": "dose-dependent decrease in cell viability; also recorded: dose-dependent decrease is cell viability"}]}]}
